Data set [1] in a line: Parallel artificial membrane permeability assay (PAMPA). The conditions noted are these: for Conc. acceptor well / Conc. donor well: PAMPA after incubation. On the procedure: The plates were stored at – 20 °C until ready for use. Prior to use, the plate was prewarmed at room temperature for 30 min. Donor- and acceptor solutions were prepared as 12 mM phosphate buffered saline with a pH of 6.5 (donor) respectively 7.4 (acceptor). […] Then, 300 μL of each donor solution were filled into the donor (bottom) wells of the PAMPA plate. 200 μL of the acceptor medium were loaded into each well of the pre-coated receiver plate (top). […] The compound concentrations in the donor- and acceptor wells were then determined using a Jasco 2 HPLC system equipped with a ReproSil-Pur 120 ODS-3 column (5 μm, 50 × 2 mm) and UV detection. […] The injection volume was 40 μL and the flow rate 1 mL/min. […] For X15695, two calibration curves were prepared in the presence (donor well) and absence (acceptor well) of 10% ethanol. (Figure S6). The experiments were performed in triplicates.
Where cA(t) is the compound concentration in the acceptor well in μmol⋅l^−1, cD(t) is the compound concentration in the donor well in […], VA and VD is the volume of the acceptor respectively donor solution per well in mL, A is the membrane area in cm^2 and t the incubation time in seconds (Table S3).
(The PAMPA barrier holds no transporters, so it reflects passive diffusion.)

The target of a further data set is T1, AHR (Homo sapiens, UniProt P35869).
T1 construct: endogenous in cells; host or cells: HAHLH (HeLa with XRE-luciferase reporter)
T1 sequence (P35869 11-848): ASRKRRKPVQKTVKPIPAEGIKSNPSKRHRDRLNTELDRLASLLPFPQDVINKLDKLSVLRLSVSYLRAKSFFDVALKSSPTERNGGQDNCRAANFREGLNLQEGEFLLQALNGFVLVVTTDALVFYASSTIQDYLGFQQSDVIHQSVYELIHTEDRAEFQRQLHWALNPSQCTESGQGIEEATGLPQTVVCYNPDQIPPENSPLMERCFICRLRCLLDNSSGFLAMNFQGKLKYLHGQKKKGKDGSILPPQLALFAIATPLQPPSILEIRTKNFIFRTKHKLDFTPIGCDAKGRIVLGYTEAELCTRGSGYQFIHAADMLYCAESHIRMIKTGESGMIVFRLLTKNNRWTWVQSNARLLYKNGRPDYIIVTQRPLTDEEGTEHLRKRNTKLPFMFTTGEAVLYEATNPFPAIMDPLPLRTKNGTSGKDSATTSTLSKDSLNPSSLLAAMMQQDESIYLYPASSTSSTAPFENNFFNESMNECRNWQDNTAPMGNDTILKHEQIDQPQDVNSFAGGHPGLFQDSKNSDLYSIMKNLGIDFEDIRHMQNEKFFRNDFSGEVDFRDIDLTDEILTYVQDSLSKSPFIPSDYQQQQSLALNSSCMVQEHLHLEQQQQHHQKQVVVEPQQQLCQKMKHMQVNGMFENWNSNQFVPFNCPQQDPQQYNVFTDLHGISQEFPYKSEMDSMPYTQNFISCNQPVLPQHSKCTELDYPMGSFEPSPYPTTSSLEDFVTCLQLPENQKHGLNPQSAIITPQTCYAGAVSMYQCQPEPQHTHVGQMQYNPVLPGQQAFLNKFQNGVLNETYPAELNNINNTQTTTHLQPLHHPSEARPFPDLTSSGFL
The data set can be described thus: AHR luciferase reporter assay in HAHLH cells. The class given is cell-based. The conditions noted are these: 8 h, % of maximal luciferase activity with dioxin 10 nM, read-out: EC50 AHR transactivation. From the text:
To characterize the chemical induced AHR activity, we used the already established HAHLH reporter cell lines obtained by stably expression of HeLa cells with the dioxin-responsive gene XRE(TnGCGTG)3-tata-luciferase-Luc-hygromycin plasmid.[29] The reporter HELN hERα cell line was obtained by transfecting human HeLa cells with the ERE-responsive gene ERE-βGlobin-luciferase-Luc-neomycin and the pSG5-hERα-puromycin plasmids as previously described.[59] To determine the action of the chemical on AHR and hERα activity, cells were seeded at a density of 50,000 cells per well in 96-well white opaque tissue culture plates (Greiner CellStar) in 150 μL of Dulbecco’s Modified Eagle Medium: Nutrient Mixture F-12 (DMEM/F- 12) without phenol red and 1 g/L glucose and supplemented with 5% stripped fetal bovine serum, 100 units/mL of penicillin, 100 μg/mL of streptomycin (test medium). Twenty-four hours later, chemicals to be tested were added at 4x concentration in culture medium, and cells were incubated at 37 °C for 8 h (HAhLH cells) or 24 h (HELN hERα cells). At the end of the incubation period, culture medium was replaced with test medium containing 0.3 mM luciferin and luciferase activity was measured for 2 s in intact living cells using a MicroBeta Wallac luminometer (PerkinElmer). Tests were performed in quadruplicate at 4x concentration in the same medium in at least 4 independent experiments. Results were expressed as % of the maximal luciferase activity. […] Effective concentration (ECs) for a given compound, EC50 is defined as the concentration inducing 50% of its maximal effect. The EC50 values were calculated including the adjustment for the basal activity of the cell line.

For a further data set, the system named is ERα in MCF-7 cells. The data set can be described thus: Immunoblot of ERα in MCF-7 cells. The class given is cell-based, human. The conditions noted are these: MCF-7, 48 h, increasing concentrations up to 1 μM. As for the experimental part: To determine the relative expression of proteins by Western blotting, cells were first washed with ice-cold phosphate buffered saline (PBS). Subsequently, they were lysed in ice-cold NP40 lysis buffer (1%NP-40, 50 mM Tris-HCl, pH 8.0, 150 mM NaCl, 5 mM Ethylenediaminetetraacetic acid [EDTA], 1 mM PMSF) on ice. DNA was degraded by sonification (five pulses at 50 amplitudes). Protein concentration was determined, and equal amounts of protein were separated on a 9% SDS-PAGE gel. The proteins were transferred onto nitrocellulose membrane by a standard Western blotting protocol and the membranes were incubated with the following antibodies: ERα (Santa Cruz Biotechnology, sc-8002, RRID: AB_627558) and PCNA (Santa Cruz Biotechnology, sc-56, RRID: AB_628110), followed by incubation with HRP labeled Goat anti-mouse Immunoglobulins (DAKO, P0447, RRID: AB_2617137).
A general note: In western blotting, separated proteins are transferred to a membrane and probed.

For the next data set, the target named is T2, ERα full-length (Homo sapiens, UniProt P03372).
T2 construct: 34 nM ERα full-length and 1.4 nM Fluormone EL Red were incubated; purchased ThermoFisher A15884
T2 sequence (P03372 1-595): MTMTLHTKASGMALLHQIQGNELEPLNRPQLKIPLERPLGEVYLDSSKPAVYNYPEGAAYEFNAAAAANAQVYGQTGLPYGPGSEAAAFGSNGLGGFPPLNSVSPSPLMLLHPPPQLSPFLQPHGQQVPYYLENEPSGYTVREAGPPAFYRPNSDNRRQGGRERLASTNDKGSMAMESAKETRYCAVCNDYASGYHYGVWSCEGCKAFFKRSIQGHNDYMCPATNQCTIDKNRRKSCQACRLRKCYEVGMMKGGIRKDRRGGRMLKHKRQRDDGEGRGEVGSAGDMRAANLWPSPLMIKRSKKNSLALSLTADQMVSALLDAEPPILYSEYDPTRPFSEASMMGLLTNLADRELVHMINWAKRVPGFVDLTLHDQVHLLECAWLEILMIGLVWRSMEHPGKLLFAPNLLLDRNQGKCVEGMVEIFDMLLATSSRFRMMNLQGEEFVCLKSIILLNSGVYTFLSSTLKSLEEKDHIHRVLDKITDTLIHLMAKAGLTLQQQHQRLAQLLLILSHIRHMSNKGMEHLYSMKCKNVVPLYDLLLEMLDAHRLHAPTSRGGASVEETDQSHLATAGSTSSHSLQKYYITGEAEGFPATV
The experiment in a line: PolarScreen ERα Competitor Assay (fluorescence polarization). The class given is binding. On the procedure: The PolarScreen Estrogen Receptor-Alpha Competitor Assay, Red (ThermoFisher, A15884) was used to determine if the X compounds bind to ERα. The assay was performed according to the manufacturer’s protocol.
For orientation: In fluorescence polarisation assays a small probe gives low polarisation when free and higher when bound to something large.

The subject of data set [2] is ER+ MCF-7, ZR75–1, and T47D breast cancer cells. Further details: method as in PMID 37520743. The conditions noted are these: previously identified ref 17; cited from earlier work.
The next data set deals with T3, AHR-Hsp90-XAP2 (Homo sapiens, UniProt P35869).
T3 construct: made in house
T3 sequence (P08238 whole entry partner, one chain of several): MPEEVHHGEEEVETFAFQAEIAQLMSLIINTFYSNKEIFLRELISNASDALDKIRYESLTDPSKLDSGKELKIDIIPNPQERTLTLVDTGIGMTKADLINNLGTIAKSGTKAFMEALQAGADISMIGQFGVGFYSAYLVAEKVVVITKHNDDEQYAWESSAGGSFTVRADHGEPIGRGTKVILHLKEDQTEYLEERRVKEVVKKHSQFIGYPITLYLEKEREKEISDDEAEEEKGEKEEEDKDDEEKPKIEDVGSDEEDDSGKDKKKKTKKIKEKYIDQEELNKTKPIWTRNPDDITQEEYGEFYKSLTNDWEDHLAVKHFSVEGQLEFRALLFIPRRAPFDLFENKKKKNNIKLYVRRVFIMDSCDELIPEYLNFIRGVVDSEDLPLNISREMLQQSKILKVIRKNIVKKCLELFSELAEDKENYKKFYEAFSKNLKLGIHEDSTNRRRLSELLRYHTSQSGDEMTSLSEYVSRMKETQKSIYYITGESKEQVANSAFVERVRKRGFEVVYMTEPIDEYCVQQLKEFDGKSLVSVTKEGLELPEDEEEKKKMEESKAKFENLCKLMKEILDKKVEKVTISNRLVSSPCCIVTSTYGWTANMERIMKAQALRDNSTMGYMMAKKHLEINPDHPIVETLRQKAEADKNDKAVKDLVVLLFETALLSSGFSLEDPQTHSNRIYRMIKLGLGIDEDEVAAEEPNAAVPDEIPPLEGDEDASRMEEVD
T3 sequence (O00170 whole entry partner, one chain of several): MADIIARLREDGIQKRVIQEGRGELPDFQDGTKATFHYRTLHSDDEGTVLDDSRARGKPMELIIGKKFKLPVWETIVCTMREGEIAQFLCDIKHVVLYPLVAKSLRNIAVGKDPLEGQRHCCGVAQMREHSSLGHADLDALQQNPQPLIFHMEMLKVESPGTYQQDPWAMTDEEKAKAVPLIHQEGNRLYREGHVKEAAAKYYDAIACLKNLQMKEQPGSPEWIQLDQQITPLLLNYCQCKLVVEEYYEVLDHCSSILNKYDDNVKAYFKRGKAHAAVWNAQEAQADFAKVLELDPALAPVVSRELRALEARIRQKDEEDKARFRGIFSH
The data set can be described thus: Thermal stability measurements (nano-DSF). The data set is classed as binding. The conditions noted are these: 2.5 μM protein, 12.5 μM compound. As for the experimental part: Thermal denaturation experiments of AHR complexes in the presence of compounds were performed using a Tycho NT.6 instrument (NanoTemper Technologies). Protein samples were prepared as previously described[67] and subsequently diluted in the buffer containing 20 mM Bis-Tris–HCl pH 7.0, 50 mM NaCl, 10 mM KCl, 10 mM MgCl2, 20 mM Na2MoO4 and 2 mM β-mercaptoethanol to a final protein concentration of 2.5 μM. Compound stock solutions were prepared at 20 mM in DMSO and added to the protein samples to yield a final concentration of 12.5 μM. For control measurements, DMSO was added to a final concentration of 5% (v/v). Following ligand or DMSO addition, the samples were gently mixed and incubated at room temperature for 10 min to allow equilibration. Thermal denaturation profiles were acquired over a temperature range of 35°C–95°C, with a heating rate of 1 °C per min. Fluorescence was monitored at emission wavelengths of 330 nm and 350 nm, and the data were analyzed as the first derivative of the fluorescence ratio (F330/F350) as a function of temperature. All experiments were performed in triplicate, and data were analyzed using the Tycho NT.6 software (NanoTemper Technologies) according to the manufacturer’s recommendations.

A further data set relates to MCF-7 cells. The data set can be described thus: Clonogenic assay in MCF-7 cells with AHR antagonist CH223191. The class given is cell-based, human. The conditions noted are these: MCF-7, 10 nM compound, 1 μM CH223191, 14 days. On the procedure: Cells were seeded at a density of 1–2×10^3 cells/well in a 6-well plate and treated with increasing concentrations of the X compounds for 14–21 days. Medium and compounds were renewed every 7 days. The experiments were terminated by fixing the cells with methanol and the colonies formed were visualized after staining with 0.5% crystal violet (w/v) in 20% methanol (v/v). Plates were photographed and the area covered by the colonies was calculated using the ColonyArea Plugin for Fiji (RRID:SCR_003070).[20]

Data set [3] concerns AHR target genes CYP1A1, CYP1B1, ALDH3A1. The conditions noted are these: human, 16 h, 1 µM.

As to `Cn1c(=O)c2c(ncn2C)n(C)c1=O` [Caffeine], the Papp at 5 h, 200 µM in data set [1] (PAMPA) was 10.7 ×10⁻⁶ cm/s. Further, the Conc. acceptor well was 43.91 µM in data set [1] (replica 1), 41.44 µM in data set [1] (replica 2) and 46.38 µM in data set [1] (replica 3). Further, the figures for the Conc. donor well in data set [1] (replica 1), in data set [1] (replica 2) and in data set [1] (replica 3) were 160.76 µM, 161.45 µM and 165.23 µM, respectively.
On to `Clc1cc2c(cc1Cl)Oc1cc(Cl)c(Cl)cc1O2` [Dioxin, reference compound], for which the concentration giving a half-maximal response (EC50) at AHR stood at 1.24 nM.
`O=C1NC(=O)C(c2ccccc2)(c2ccccc2)N1` [Phenytoin]: the Conc. acceptor well is 7.15 µM in data set [1] (replica 1), 10.14 µM in data set [1] (replica 2) and 14.06 µM in data set [1] (replica 3). In addition, the Conc. donor well came to 112.02 µM in data set [1] (replica 1), 117.35 µM in data set [1] (replica 2) and 120.53 µM in data set [1] (replica 3).
As for `Cc1cccn2cc(-c3ccc(F)cc3)nc12` [X19167], the “ERα destabilization (immunoblot)” value in the data set on ERα in MCF-7 cells is “no significant ERα destabilization”. Moreover, on AHR, the 50% effective concentration (EC50) is 173 nM. Further, the “displacement of the Fluormone tracer from ERα” value (“displacement” for short) on ERα full-length was “failed to displace the Fluormone”. The “Inhibition of Proliferation” value in data set [2] was “No”. Moreover, the “thermal stabilization of AHR (nano-DSF)” value at AHR-Hsp90-XAP2 is “promote AHR destabilization”.
Regarding `Fc1ccccc1-c1cn2ccccc2n1` [X19712], the “ERα destabilization (immunoblot)” value with ERα in MCF-7 cells is reported as “no significant ERα destabilization”. Also, the “displacement” value on ERα full-length is reported as “failed to displace the Fluormone”. The “Inhibition of Proliferation” value in data set [2] is listed as “No”. Further, the “thermal stabilization of AHR (nano-DSF)” value at AHR-Hsp90-XAP2 is on record as “promote AHR destabilization”.
As for `Cc1cccn2cc(-c3ccccc3F)nc12` [X19718], in the data set on ERα in MCF-7 cells, the “ERα destabilization (immunoblot)” value was “no significant ERα destabilization”. For the same compound, the “displacement” value on ERα full-length was “failed to displace the Fluormone”. In addition, in data set [2], the “Inhibition of Proliferation” value is “No”. Also, the “thermal stabilization of AHR (nano-DSF)” value on AHR-Hsp90-XAP2 is given as “promote AHR destabilization”.
As to `Fc1ccc(-c2cn3cc(C(F)(F)F)ccc3n2)cc1` [X20046], the “ERα destabilization (immunoblot)” value in the data set on ERα in MCF-7 cells is recorded as “most proficient in destabilizing ERα”. The “inhibition of colony expansion in the presence of AHR antagonist CH223191” value with MCF-7 cells is “clearly abrogated by the AHR antagonist CH223191”. Besides, the “expression of AHR target genes (RT-PCR)” value in data set [3] is “enhanced the transcriptional activity of the AHR target genes in both MCF-7 and T47D cells”. For the same compound, the “Inhibition of Proliferation” value in data set [2] was “Yes”.

Usually Papp stands for the rate of passage across a membrane or cell layer, normalised by area and donor concentration. High values mean fast passage, low ones slow passage. The EC50 is the concentration that produces a half-maximal response.

The values are drawn from article PMC13197777, “Distinct 2-phenylimidazo[1,2-a]pyridine derivatives that inhibit breast cancer cell proliferation identified as AHR ligands” (iScience, 2026).
